Data as given in PMC12028158, “Synthesis and In Vitro Evaluation of the Anticancer Effect of Novel Phosphonium Vindoline Derivatives” (International Journal of Molecular Sciences, 2025).

Key:
Format in all cases: cell-based
HL-60(TB) = experiment: NCI60 five-dose screen; details: Homo sapiens, HL-60
NCI-H226 = experiment: NCI60 five-dose screen; details: Homo sapiens, NCI-H226
DU-145 = experiment: NCI60 five-dose screen; details: Homo sapiens, DU-145
NCI/ADR-RES [1] = experiment: NCI60 five-dose screen; details: Homo sapiens
NCI-H322M = experiment: NCI60 one-dose screen; details: Homo sapiens, read-out: Growth percent
OVCAR-8 = experiment: NCI60 one-dose screen; details: Homo sapiens, OVCAR-8, read-out: Growth percent
SK-MEL-28 = experiment: NCI60 five-dose screen; details: Homo sapiens, SK-MEL-28
CAKI-1 = experiment: NCI60 five-dose screen; details: Homo sapiens, CAKI-1
KM12 = experiment: NCI60 one-dose screen; details: Homo sapiens, KM12, read-out: Growth percent
NCI-H23 = experiment: NCI60 one-dose screen; details: Homo sapiens, NCI-H23, read-out: Growth percent
EKVX = experiment: NCI60 five-dose screen; details: Homo sapiens
M14 = experiment: NCI60 five-dose screen; details: Homo sapiens, M14
MALME-3M = experiment: NCI60 one-dose screen; details: Homo sapiens, Malme-3M, read-out: Growth percent
OVCAR-4 = experiment: NCI60 five-dose screen; details: Homo sapiens, OVCAR-4
UACC-62 [2] = experiment: NCI60 five-dose screen; details: Homo sapiens, UACC-62
SK-MEL-5 [3] = experiment: NCI60 five-dose screen; details: Homo sapiens, SK-MEL-5
IGROV1 [4] = experiment: NCI60 five-dose screen; details: Homo sapiens, IGROV-1
[5] = tested on: 60 human tumor cell lines (NCI60); experiment: NCI60 one-dose screen, overall mean; details: for activity at 10 µM: Homo sapiens, 60 cell, read-out: Mean growth percent
HS 578T = experiment: NCI60 five-dose screen; details: Homo sapiens, Hs-578T
CNS Cancer panel = experiment: NCI60 five-dose screen, panel mean; details: Homo sapiens, read-out: GI50 Mean
UACC-62 [6] = experiment: NCI60 one-dose screen; details: Homo sapiens, UACC-62, read-out: Growth percent
MOLT-4 = experiment: NCI60 one-dose screen; details: Homo sapiens, MOLT-4, read-out: Growth percent
A498 [7] = experiment: NCI60 one-dose screen; details: Homo sapiens, A498, read-out: Growth percent
SN12C [8] = experiment: NCI60 five-dose screen; details: Homo sapiens
BT-549 [9] = experiment: NCI60 five-dose screen; details: Homo sapiens, BT-549
MDA-MB-435 = experiment: NCI60 five-dose screen; details: Homo sapiens, MDA-MB-435
SF-268 = experiment: NCI60 five-dose screen; details: Homo sapiens, SF-268
Breast Cancer panel = experiment: NCI60 five-dose screen, panel mean; details: Homo sapiens, read-out: GI50 Mean
SK-MEL-5 [10] = experiment: NCI60 one-dose screen; details: Homo sapiens, SK-MEL-5, read-out: Growth percent
786-0 [11] = experiment: NCI60 one-dose screen; details: Homo sapiens, 786-0, read-out: Growth percent
HOP-92 = experiment: NCI60 one-dose screen; details: Homo sapiens, HOP-92, read-out: Growth percent
HCT-15 [12] = experiment: NCI60 one-dose screen; details: Homo sapiens, HCT-15, read-out: Growth percent
Leukemia panel = experiment: NCI60 five-dose screen, panel mean; details: Homo sapiens, read-out: GI50 Mean
NCI-H460 = experiment: NCI60 one-dose screen; details: Homo sapiens, NCI-H460, read-out: Growth percent
K-562 = experiment: NCI60 five-dose screen; details: Homo sapiens, K562
HCT-116 = experiment: NCI60 five-dose screen; details: Homo sapiens, HCT-116
MDA-MB-231/ATCC = experiment: NCI60 one-dose screen; details: Homo sapiens, MDA-MB-231, read-out: Growth percent
HCT-15 [13] = experiment: NCI60 five-dose screen; details: Homo sapiens, HCT-15
A498 [14] = experiment: NCI60 five-dose screen; details: Homo sapiens, A498
SN12C [15] = experiment: NCI60 one-dose screen; details: Homo sapiens, read-out: Growth percent
BT-549 [16] = experiment: NCI60 one-dose screen; details: Homo sapiens, BT-549, read-out: Growth percent
IGROV1 [17] = experiment: NCI60 one-dose screen; details: Homo sapiens, IGROV-1, read-out: Growth percent
SR = experiment: NCI60 one-dose screen; details: Homo sapiens, read-out: Growth percent
NCI/ADR-RES [18] = experiment: NCI60 one-dose screen; details: Homo sapiens, read-out: Growth percent
786-0 [19] = experiment: NCI60 five-dose screen; details: Homo sapiens, 786-0
SF-539 = experiment: NCI60 one-dose screen; details: Homo sapiens, SF-539, read-out: Growth percent
RXF 393 = experiment: NCI60 five-dose screen; details: Homo sapiens, RXF 393

SMILES: CC[C@]12C=CCN3CC[C@@]4(c5ccc(OC)cc5N(C)[C@H]4[C@@](O)(C(=O)OC)[C@@H]1OC(=O)CCCC[P+](C1CCCCC1)(C1CCCCC1)C1CCCCC1)[C@@H]32 [10d]
- GI50 (HL-60(TB)): 293 nM
- GI50 (NCI-H226): 4410 nM
- GI50 (DU-145): 3650 nM
- GI50 (NCI/ADR-RES [1]): 65500 nM
- activity at 10 µM (NCI-H322M): 16.1%
- activity at 10 µM (OVCAR-8): -6.33%
- GI50 (SK-MEL-28): 1380 nM
- GI50 (CAKI-1): 16700 nM
- activity at 10 µM (KM12): -71.1%
- activity at 10 µM (NCI-H23): -9.66%
- GI50 (EKVX): 3130 nM
- GI50 (M14): 2200 nM
- activity at 10 µM (MALME-3M): -95.9%
- GI50 (OVCAR-4): 2720 nM
- GI50 (UACC-62 [2]): 1530 nM
- GI50 (SK-MEL-5 [3]): 1880 nM
- GI50 (IGROV1 [4]): 1360 nM
- activity at 10 µM [5]: -36.6%
- GI50 (HS 578T): 2610 nM
- GI50 (CNS Cancer panel): 2600 nM
- activity at 10 µM (UACC-62 [6]): -96.9%
- activity at 10 µM (MOLT-4): -5.16%
- activity at 10 µM (A498 [7]): -0.04%
- GI50 (SN12C [8]): 2770 nM
- GI50 (BT-549 [9]): 2450 nM
- GI50 (MDA-MB-435): 2620 nM
- GI50 (SF-268): 3170 nM
- GI50 (Breast Cancer panel): 1480 nM
- activity at 10 µM (SK-MEL-5 [10]): -96.2%
- activity at 10 µM (786-0 [11]): -36%
- activity at 10 µM (HOP-92): -44.5%
- activity at 10 µM (HCT-15 [12]): 75.2%
- GI50 (Leukemia panel): 1220 nM
- activity at 10 µM (NCI-H460): 5.27%
- GI50 (K-562): 983 nM
- GI50 (HCT-116): 2940 nM
- activity at 10 µM (MDA-MB-231/ATCC): -92.8%
- GI50 (HCT-15 [13]): 16100 nM
- GI50 (A498 [14]): 13300 nM
- activity at 10 µM (SN12C [15]): -57.9%
- activity at 10 µM (BT-549 [16]): -97.4%
- activity at 10 µM (IGROV1 [17]): -84.7%
- activity at 10 µM (SR): 19.5%
- activity at 10 µM (NCI/ADR-RES [18]): 96.7%
- GI50 (786-0 [19]): 5430 nM
- activity at 10 µM (SF-539): -93.9%
- GI50 (RXF 393): 1240 nM

SMILES: CC[C@]12C=CCN3CC[C@@]4(c5ccc(OC)cc5N(C)[C@H]4[C@@](O)(C(=O)OC)[C@@H]1OC(=O)CCCC[P+](c1ccc(OC)cc1)(c1ccc(OC)cc1)c1ccc(OC)cc1)[C@@H]32 [10b]
- GI50 (HL-60(TB)): 234 nM
- GI50 (NCI-H226): 2030 nM
- GI50 (DU-145): 16000 nM
- GI50 (NCI/ADR-RES [1]): 20500 nM
- activity at 10 µM (NCI-H322M): -89.7%
- activity at 10 µM (OVCAR-8): -90.2%
- GI50 (SK-MEL-28): 486 nM
- GI50 (CAKI-1): 15200 nM
- activity at 10 µM (KM12): -68.8%
- activity at 10 µM (NCI-H23): -90.7%
- GI50 (EKVX): 185 nM
- GI50 (M14): 1200 nM
- activity at 10 µM (MALME-3M): -97.2%
- GI50 (OVCAR-4): 1570 nM
- GI50 (UACC-62 [2]): 963 nM
- GI50 (SK-MEL-5 [3]): 1600 nM
- GI50 (IGROV1 [4]): 548 nM
- activity at 10 µM [5]: -70.4%
- average reduction / average cell death ([5]; one-dose, 10 µM, average over cell lines): more than 70%
- GI50 (HS 578T): 1510 nM
- GI50 (CNS Cancer panel): 1170 nM
- activity at 10 µM (UACC-62 [6]): -95.2%
- activity at 10 µM (MOLT-4): -26.2%
- activity at 10 µM (A498 [7]): -54.7%
- GI50 (SN12C [8]): 1180 nM
- GI50 (BT-549 [9]): 1250 nM
- GI50 (MDA-MB-435): 521 nM
- GI50 (SF-268): 1470 nM
- GI50 (Breast Cancer panel): 700 nM
- activity at 10 µM (SK-MEL-5 [10]): -97%
- activity at 10 µM (786-0 [11]): -92.9%
- activity at 10 µM (HOP-92): -74.5%
- activity at 10 µM (HCT-15 [12]): -5.69%
- GI50 (Leukemia panel): 560 nM
- activity at 10 µM (NCI-H460): -87%
- GI50 (K-562): 675 nM
- GI50 (HCT-116): 1300 nM
- activity at 10 µM (MDA-MB-231/ATCC): -97.4%
- GI50 (HCT-15 [13]): 8790 nM
- GI50 (A498 [14]): 2930 nM
- activity at 10 µM (SN12C [15]): -95.3%
- activity at 10 µM (BT-549 [16]): -96.7%
- activity at 10 µM (IGROV1 [17]): -92%
- activity at 10 µM (SR): 23.2%
- activity at 10 µM (NCI/ADR-RES [18]): 84.3%
- GI50 (786-0 [19]): 2590 nM
- activity at 10 µM (SF-539): -97.5%
- GI50 (RXF 393): 524 nM
